Consider ten compounds from patent publication US11339193B2, “CDP protein secretion inhibitors” (KEZAR LIFE SCIENCES, priority 2018, dated 2022).

Common to all, as to format: cell-based
For assay [1], the system named is NCI-H929 multiple myeloma cell line. The assay is described as follows: H929 assay (cell viability, Celltiter-Glo). The note with it: Homo sapiens, NCI-H929, read-out: H929 EC50. The method, boiled down:
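Cells plated in RPMI 1640 with 10% FBS and 2 mM glutamine, treated with compound dilutions in DMSO/media. Incubation 48 h at 37° C, 5% CO2. Viability from luciferase luminescence signal.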
(In ATP-based viability assays light output follows the ATP content of the culture.)

The test system of assay [2] is TNFα-FL/Gaussia Luciferase. Kind of assay: Dox induced TNFα-FL-Gluc assay. The note with it: read-out: TNFa FL Gluc IC50. The method, boiled down:
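Stable Flp-In 293 T-REx line expressing full-length TNFα (aa 1-233) fused at its C-terminus to Gaussia luciferase under doxycycline-inducible control. Cells plated the day before, then given compound dilutions in DMSO/media containing doxycycline and incubated at 37 °C, 5% CO2.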

For assay [3], the system named is PD1-ss+10aa/Gaussia Luciferase. Kind of assay: Dox induced PD1-ss-Gluc assay. The note with it: read-out: PD1ss Gluc IC50. Summed up:
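Stable Flp-In 293 T-REx line expressing doxycycline-inducible Gaussia luciferase fused to the PD1 signal sequence plus 10 amino acids. Cells plated the day before, then exposed to compound dilutions in DMSO/media containing doxycycline at 37 °C, 5% CO2.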

For assay [4], the system named is Prl-ss+10aa/Gaussia Luciferase. The assay is described as follows: Prl-ss-Gluc assay (constitutively active or 24 hr Dox inducible). The note with it: read-out: Prl IC50. An excerpt:
Constitutively Active Prl-ss-Gluc Assay
Flp-In 293 T-REx™ cells were transfected with pcDNA™5/FRT plasmid inserted with cDNA encoding Gaussia Luciferase fused to the 3′ end of cDNA encoding Prl signal sequence plus 10 amino acids (N-[…]-C) (SEQ ID NO:4). Transfected cells were selected for resistance to the selectable markers Hygromycin and Blasticidin to create a stable cell line that constitutively expressed the Prlss+10aa/Gaussia Luciferase fusion protein. The day before assay, cells were trypsinized and plated in 384-well tissue culture plates. The next day, culture media was removed from the wells and replaced with fresh media. Compound dilutions in DMSO/media were added to the wells and incubated at 37° C., 5% CO2.
24 hr Dox Inducible Prl-ss-Gluc Assay
Flp-In 293 T-REx™ cells were transfected with pcDNA™5/FRT/TO plasmid inserted with cDNA encoding Gaussia Luciferase fused to the 3′ end of cDNA encoding Prl signal sequence plus 10 amino acids (N-[…]-C) (SEQ ID NO:5). Transfected cells were selected for resistance to the selectable markers Hygromycin and Blasticidin to create a stable cell line that contained the Prl-ss+10aa/Gaussia Luciferase cDNA insert whose expression was regulated under the T-REx™ system. The day before assay, cells were trypsinized and plated in 384-well tissue culture plates. The next day, compound dilutions in DMSO/media containing doxycycline were added to the wells and incubated at 37° C., 5% CO2.

A further assay relates to HER3ss-Gluc. Kind of assay: HER3ss assay. The note with it: HEK-293T T-rex cells, transient transfection, doxycycline, 24 h; read-out: HER3 ss IC50. The protocol: The mature domain of secreted luciferase from Gaussia princeps (GLuc) was cloned into pcDNA5/FRT/TO. The signal sequence plus four amino acids of the mature domain from HER3 ([…]) (SEQ ID NO:8) were cloned upstream of GLuc mature domain and used in transient transfection experiment. HEK-293T T-rex cells were cultured in Dulbecco's modified Eagle's medium with 10% FBS at 5% CO2. Cells were plated 1×10e6 cells per well in a 6-well plate and incubated for 6 h. Cells were transiently transfected with HER3ss-Gluc using Lipofectamine 2000 (Invitrogen). After overnight incubation, transfected cells were replated in a clear-bottomed, black 96-well plate at a density of 20,000 cells per well. Six hours after plating, the cells were treated with doxycycline (1 μg/ml) and increasing concentrations of the indicated compounds for 24 h. Secreted luciferase in the conditioned media was quantified by luminescence using the BioLux Gaussia Luciferase Assay Kit (New England Biolabs, Ipswich, Mass., USA) and a SpectraMax M5 plate reader (Molecular Devices).

Assay [5] deals with U266B1 multiple myeloma cell line. The assay is described as follows: U266 assay (cell viability, Celltiter-Glo). The note with it: Homo sapiens, U-266. The method, then: Cells were plated in 384-well tissue culture plates and treated with compound dilutions in DMSO/media. Plates were incubated at 37° C., 5% CO2 for 48 hours. After 48 hours, Celltiter-Glo@ (Promega) was added to each well and luciferase signal was quantified using Tecan Infinite M1000 Pro for cell viability determination.

Where [6] appears, read: Flp-In 293 T-REx cells, doxycycline, 24 hours.
Where [7] appears, read: Flp-In 293 T-REx cells, 24 hours.

The structures appear in SMILES notation. Where two headings read alike, the source gives them in different places. Numbered stars: 1 amine (or outer) side, 2 acyl side, 3 side chain; on linkers, the order of the positions; unused ones are H or OH. Square brackets hold non-standard residues; d marks the D form. Peptide text beside a SMILES is read from it. NMeAla(5-Cl-benzothien-3-yl) = CN[C@@H](Cc1csc2ccc(Cl)cc12)C(=O)O; X14 = CC#CCn1cc(C[C@@H](C(=O)[*:2])N(C)[*:1])c2ccccc21; X16 = CN([C@@H](Cc1csc2c(Cl)cccc12)C(=O)[*:2])[*:1]; Ala(1-cyclohexenyl) = N[C@@H](CC1=CCCCC1)C(=O)O; Butanoyl(2R-oxy,4-CN) = N#CCC[C@@H](O)C(=O)O; Abu(4,4,4-F3) = N[C@@H](CC(F)(F)F)C(=O)O; X12 = O=C([C@H](CC1=CCCC1)N[*:1])[*:2]; NMeL = CN[C@@H](CC(C)C)C(=O)O; NMeA = CN[C@@H](C)C(=O)O

The EC50 is the midpoint of the concentration-response curve. One may read the IC50 as the concentration needed to halve the response being measured.

Take `CC(C)C[C@@H]1NC(=O)[C@H](Cc2csc3ccc(Cl)cc23)N(C)C(=O)[C@H](CC2=CCCCC2)NC(=O)[C@H](CC(C)C)N(C)C(=O)[C@H](CC2=CCCC2)NC(=O)[C@@H](CCC#N)OC(=O)[C@H](C)N(C)C1=O` [C-85] (cyclo(L[NMeA][Butanoyl(2R-oxy,4-CN)][X12][NMeL][Ala(1-cyclohexenyl)][NMeAla(5-Cl-benzothien-3-yl)])): the concentration for a half-maximal effect (EC50) in assay [1] (I.A.) and in assay [5] (I.A.) was over 25 µM each time. The half-inhibitory concentration (IC50) was over 25 µM in assay [2] (I.A.), 1.14 µM in assay [3] (setting [6]), over 25 µM in assay [4] (I.A.) and 0.007 µM with HER3ss-Gluc.

As to `CC(C)C[C@@H]1NC(=O)[C@H](Cc2csc3ccc(Cl)cc23)N(C)C(=O)[C@H](CC2=CCCC2)NC(=O)[C@H](CC(C)C)N(C)C(=O)[C@H](CC2=CCCCC2)NC(=O)[C@@H](CCC#N)OC(=O)[C@H](C)N(C)C1=O` [C-86] (cyclo(L[NMeA][Butanoyl(2R-oxy,4-CN)][Ala(1-cyclohexenyl)][NMeL][X12][NMeAla(5-Cl-benzothien-3-yl)])), the concentration giving a half-maximal response (EC50) in assay [1] (I.A.) and in assay [5] (I.A.) was over 25 µM in each case. For the same compound, the IC50 is over 25 µM in assay [2] (I.A.), 0.567 µM in assay [3] (setting [6]), over 25 µM in assay [4] (I.A.) and 0.01 µM in the assay with HER3ss-Gluc.

For `CC(C)C[C@@H]1NC(=O)[C@H](Cc2csc3ccc(Cl)cc23)N(C)C(=O)[C@H](CC2=CCCCC2)NC(=O)[C@H](CC(C)C)N(C)C(=O)[C@H](CC2=CCCCC2)NC(=O)[C@@H](CCC#N)OC(=O)[C@H](C)N(C)C1=O` [C-87] (cyclo(L[NMeA][Butanoyl(2R-oxy,4-CN)][Ala(1-cyclohexenyl)][NMeL][Ala(1-cyclohexenyl)][NMeAla(5-Cl-benzothien-3-yl)])), the EC50 in assay [1] (I.A.) and in assay [5] (I.A.) was over 25 µM each time. Moreover, the IC50 in assay [2] (I.A.) was over 25 µM; in assay [3] (I.A.), over 25 µM; in assay [4] (I.A.), over 25 µM; with HER3ss-Gluc, 0.011 µM.

Regarding `CC(C)C[C@@H]1NC(=O)[C@H](CC(C)C)N(C)C(=O)[C@H](CC(F)(F)F)NC(=O)[C@@H](CCC#N)OC(=O)[C@H](C)N(C)C(=O)[C@H](CC2=CCCCC2)NC(=O)[C@H](Cc2csc3ccc(Cl)cc23)N(C)C1=O` [C-88] (cyclo(L[NMeAla(5-Cl-benzothien-3-yl)][Ala(1-cyclohexenyl)][NMeA][Butanoyl(2R-oxy,4-CN)][Abu(4,4,4-F3)][NMeL])), the EC50 in assay [1] (48 hours, cell viability) is 5.64 µM; in assay [5] (I.A.), over 25 µM. The IC50 in assay [2] (setting [6]) is 1.38 µM; in assay [3] (setting [6]), 0.149 µM; in assay [4] (I.A.) it was over 25 µM; with HER3ss-Gluc, 0.065 µM.

As to `CC(C)C[C@@H]1NC(=O)[C@H](CC(C)C)N(C)C(=O)[C@H](CC(F)(F)F)NC(=O)[C@@H](CCC#N)OC(=O)[C@H](C)N(C)C(=O)[C@H](CC2=CCCC2)NC(=O)[C@H](Cc2csc3ccc(Cl)cc23)N(C)C1=O` [C-89] (cyclo(L[NMeAla(5-Cl-benzothien-3-yl)][X12][NMeA][Butanoyl(2R-oxy,4-CN)][Abu(4,4,4-F3)][NMeL])), the EC50 is 3.73 µM in assay [1] (48 hours, cell viability) and over 25 µM in assay [5] (I.A.). The half-inhibitory concentration (IC50) was 0.879 µM in assay [2] (setting [6]), 0.172 µM in assay [3] (setting [6]), over 25 µM in assay [4] (I.A.) and 0.033 µM in the assay on HER3ss-Gluc.

For `CC(C)C[C@@H]1NC(=O)[C@H](Cc2csc3ccc(Cl)cc23)N(C)C(=O)[C@H](CC(F)(F)F)NC(=O)[C@H](CC(C)C)N(C)C(=O)[C@H](CC(F)(F)F)NC(=O)[C@@H](CCC#N)OC(=O)[C@H](C)N(C)C1=O` [C-90] (cyclo(L[NMeA][Butanoyl(2R-oxy,4-CN)][Abu(4,4,4-F3)][NMeL][Abu(4,4,4-F3)][NMeAla(5-Cl-benzothien-3-yl)])), the half-maximal effective concentration (EC50) in assay [1] (I.A.) and in assay [5] (I.A.) was over 25 µM throughout. Further, the IC50 in assay [2] (setting [6]) is 2.88 µM; in assay [3] (setting [6]), 0.52 µM; in assay [4] (I.A.), over 25 µM; with HER3ss-Gluc, 0.038 µM.

In the case of `CC#CCn1cc(C[C@H]2C(=O)N[C@@H](CC(C)C)C(=O)N(C)[C@@H](C)C(=O)O[C@H](CCC#N)C(=O)N[C@@H](CC(F)(F)F)C(=O)N(C)[C@@H](CC(C)C)C(=O)N[C@@H](CC(F)(F)F)C(=O)N2C)c2ccccc21` [C-91] (cyclo(L[NMeA][Butanoyl(2R-oxy,4-CN)][Abu(4,4,4-F3)][NMeL][Abu(4,4,4-F3)][X14])), the EC50 in assay [1] (48 hours, cell viability) is 4.88 µM; in assay [5] (I.A.), over 25 µM. For the same compound, the concentration for half-maximal inhibition (IC50) in assay [2] (setting [6]) is 0.986 µM; in assay [3] (setting [6]), 0.274 µM; in assay [4] (setting [7]) it was 9.8 µM; in the assay with HER3ss-Gluc, 0.124 µM.

For the compound `CC(C)C[C@@H]1NC(=O)[C@H](Cc2csc3ccc(Cl)cc23)N(C)C(=O)[C@H](CC(F)(F)F)NC(=O)[C@H](CC(C)C)N(C)C(=O)[C@H](CC(C)C)NC(=O)[C@@H](CCC#N)OC(=O)[C@H](C)N(C)C1=O` [C-92] (cyclo(L[NMeA][Butanoyl(2R-oxy,4-CN)]L[NMeL][Abu(4,4,4-F3)][NMeAla(5-Cl-benzothien-3-yl)])), the 50% effective concentration (EC50) was 9.88 µM in assay [1] (48 hours, cell viability) and over 25 µM in assay [5] (I.A.). Moreover, the half-maximal inhibitory concentration (IC50) is 3.86 µM in assay [2] (setting [6]), 0.813 µM in assay [3] (setting [6]), over 25 µM in assay [4] (I.A.) and 0.098 µM in the assay on HER3ss-Gluc.

With `CC(C)C[C@@H]1NC(=O)[C@H](Cc2csc3ccc(Cl)cc23)N(C)C(=O)[C@H](CC(C)C)NC(=O)[C@H](CC(C)C)N(C)C(=O)[C@H](CC(C)C)NC(=O)[C@@H](CCC#N)OC(=O)[C@H](C)N(C)C1=O` [C-93] (HELM PEPTIDE1{L.[meA].[N#CCC[C@@H](O[*:1])C(=O)[*:2]].L.[meL].L.[CN([C@@H](Cc1csc2ccc(Cl)cc12)C(=O)[*:2])[*:1]]}$PEPTIDE1,PEPTIDE1,1:R1-7:R2$$$V2.0), the half-maximal effective concentration (EC50) came out at 3.39 µM in assay [1] (48 hours, cell viability) and 16.2 µM in assay [5] (48 hours, cell viability). For the same compound, the IC50 in assay [2] (setting [6]) worked out at 0.672 µM; in assay [3] (setting [6]) it was 0.278 µM; in assay [4] (setting [7]) it was 5.71 µM; in the assay with HER3ss-Gluc, 0.038 µM.

On to `CC(C)C[C@@H]1NC(=O)[C@H](Cc2csc3c(Cl)cccc23)N(C)C(=O)[C@H](CC(C)C)NC(=O)[C@H](CC(C)C)N(C)C(=O)[C@H](CC(F)(F)F)NC(=O)[C@@H](CCC#N)OC(=O)[C@H](C)N(C)C1=O` [C-94] (cyclo(L[NMeA][Butanoyl(2R-oxy,4-CN)][Abu(4,4,4-F3)][NMeL]L[X16])), for which the concentration for a half-maximal effect (EC50) in assay [1] (48 hours, cell viability) is 6.05 µM; in assay [5] (I.A.), over 25 µM. Moreover, the IC50 turned out to be 1.24 µM in assay [2] (setting [6]), 0.425 µM in assay [3] (setting [6]), 19.3 µM in assay [4] (setting [7]) and 0.074 µM in the assay with HER3ss-Gluc.
